From ChEMBL document CHEMBL2202956, “(±)-Tylopilusins, diphenolic metabolites from the fruiting bodies of Tylopilus eximius” (J Nat Prod, 2012) come the findings set out here.

Series [1] concerns Staphylococcus aureus. As to the kind of experiment: Toxicity in methicillin-resistant Staphylococcus aureus assessed as growth inhibition at 20 ug/6mm disk after 68 hrs. The series is classed as organism-based. The settings on record: in vitro.
Series [2] relates to Staphylococcus aureus. The series is described as follows: Inhibition of yellow pigment production in methicillin-resistant Staphylococcus aureus at 20 ug/6mm disk after 68 hrs by paper disk method. Type of series: functional.

Turning to `COC(=O)[C@]1(O)C(c2ccc(O)cc2)=C(O)C(=O)[C@]1(O)c1ccc(O)cc1`, in the series on Staphylococcus aureus [1], the Activity entry was “Non-toxic”. Further, in the series on Staphylococcus aureus [2], the “inhibition zone (IZ)” value was determined as 7 mm.
The like results for `COC(=O)[C@@]1(O)C(c2ccc(O)cc2)=C(O)C(=O)[C@@]1(O)c1ccc(O)cc1` were, in that order, “Non-toxic” and 7 mm.
For the molecule `COC(=O)[C@]1(O)C(c2ccc(O)cc2)=C(O)C(=O)[C@]1(OC)c1ccc(O)cc1`, the Activity entry in the series with Staphylococcus aureus [1] is “Non-toxic”. The “inhibition zone (IZ)” value in the series on Staphylococcus aureus [2] is 9 mm.
Taken in the same sequence, the figures for `COC(=O)[C@@]1(O)C(c2ccc(O)cc2)=C(O)C(=O)[C@@]1(OC)c1ccc(O)cc1` were “Non-toxic” and 8 mm.
